The text below walks through data of EP0196005A1, “Pyridazinones, their preparation and pharmaceutical compositions containing them” (Dr. Karl Thomae GmbH, priority 1985, dated 1986).

The subject of one test is Thrombozytenaggregation. Nature of the test: Platelet aggregation according to Born and Cross (collagen-induced, photometric). As to conditions: collagen-induced aggregation in platelet-rich plasma of healthy subjects. The test is classed as cell-based, gesunder Versuchspersonen. The method, then:
1. Bestimmung der Thrombozytenaggregation nach Bom und Cross (J. Physiol. 170, 397 (1964)):
Die Thrombozytenaggregation wurde in plättchenreichem Plasma gesunder Versuchspersonen gemessen. Hierbei wurde der Verlauf der Abnahme der optischen Dichte nach Zugabe von handelsüblichem Collagen der Firma Sigma, St. Louis/USA, welches 1 mg Collagen-Fibrillen pro ml enthält, photometrisch gemessen und registriert. Aus dem Neigungswinkel der Dichtekurve wurde auf die Aggregationsgeschwindigkeit (Vmax) geschlossen. Der Punkt der Kurve, bei dem die größte Lichtdurchlässigkeit vorlag, diente zur Berechnung der "optical density" (O.D.). Zur maximalen Aggregationsauslösung werden ca. 0,01 ml der Collagenlösung zu 1 ml plättchenreichem Plasma gegeben.

In the next test the test system is narkotisierten Katze. The test can be described thus: Blood pressure lowering and positive inotropic effect in the anaesthetised cat. The test is classed as in vivo. As to conditions: 0,1 mg/kg i.v., mean of 3 cats; for Wirkungsdauer (Halbwerts-zeit): anaesthetised cats; for Blutdruck änderung in mmHg: second value of the printed pair (presumably diastolic), pentobarbital-anaesthetised cats. On the procedure: 2. Bestimmung der blutdrucksenkenden und positiv inotropen Wirkung an der narkotisierten Katze:
Die Untersuchungen wurden an Katzen durchgeführt, die mit Pentobarbital-Natrium (40 mg/kg i.p.) narkotisiert waren. Die Tiere atmeten spontan. Der arterielle Blutdruck wurde in der Aorta abdominalis mit einem Statham-Druckwandler (P 23 Dc) gemessen. Für die Erfassung der positiv inotropen Wirkung wurde mit einem Kathetertipmanometer (Milliar PC-350 A) der Druck in der linken Herzkammer gemessen. Daraus wurde der Kontraktilitätsparameter dp/dtmax mittels eines Analogdifferenzierers gewonnen. Die zu untersuchende Substanz wurden in eine Vena femoralis injiziert Als Lösungsmittel diente Polydiol 200. Die Substanz wurde an 3 Katzen geprüft, Dosis 0,1 i.v..

`CC1CC(=O)NN=C1c1ccc2oc(-n3ccnc3)nc2c1` (stereo not shown) [A, 5-Methyl-6-[2-(1-imidazolyl)-benzoxazol-5-yl]-4,5-dihydro-3(2H)-pyridazinon] displayed a concentration for a half-maximal effect (EC50) in the test with Thrombozytenaggregation of 31 nM. Besides, in the test on narkotisierten Katze, the “Wirkungsdauer (Halbwerts-zeit)” value was 25 Minuten and the “Blutdruck änderung in mmHg” value was -45 mmHg.
For the molecule `CC1CC(=O)NN=C1c1ccc2nc(N3CCNCC3)oc2c1` (stereo not shown) [B, 5-Methyl-6-[2-(1-piperazinyl)-benzoxazol-6-yl]-4,5-dihydro-3(2H)-pyridazinon], in the test on narkotisierten Katze, the “Wirkungsdauer (Halbwerts-zeit)” value was found to be 12 Minuten and the “Blutdruck änderung in mmHg” value is recorded as -43 mmHg.
On the same counts, the results for `CCOC(=O)N1CCN(c2nc3ccc(C4=NNC(=O)CC4C)cc3o2)CC1` (stereo not shown) [C, 5-Methyl-6-[2-(4-carbäthoxy-1-piperazinyl)-benzoxazol-6-yl]-4,5-dihydro-3(2H)-pyridazinon] are 12 Minuten and -50 mmHg.
Take `CC1CC(=O)NN=C1c1ccc2[nH]c(N3CCCC3)nc2c1` (stereo not shown) [D]: in the test with narkotisierten Katze, the “Wirkungsdauer (Halbwerts-zeit)” value came out at 13 Minuten and the “Blutdruck änderung in mmHg” value was -17 mmHg.
On the same counts, the results for `CC1CC(=O)NN=C1c1ccc2[nH]c(N3CCSCC3)nc2c1` (stereo not shown) [E, 5-Methyl-6-[2-(4-thiomorpholino)-benzimidazol-5-yl]-4,5-dihydro-3(2H)-pyridazinon] are 10 Minuten and -12 mmHg.
For `CC1CC(=O)NN=C1c1ccc2nc(-n3ccnc3)[nH]c2c1` (stereo not shown) [F, 5-Methyl-6-[2-(1-imidazolyl)-benzimidazol-5-yl]-4,5-dihydro-3(2H)-pyridazinon] the same measures were 8 Minuten and -20 mmHg.

The EC50 is the concentration needed to bring the measured effect to its halfway point.
